Reference: paper PMC10042540, “Targeting oncogenic KRasG13C with nucleotide-based covalent inhibitors” (eLife, 2023)

How the values were obtained:
[1] = biological target: KRas; set-up: method as in Jeganathan et al., 2018; conditions: reversible affinity; ref Jeganathan et al., 2018; cited from earlier work
[2] = system: Ras pathway (pcRaf, pAkt, pErk, pS6); assay: Electroporation into HeLa cells, western blot of downstream signalling; type: cell-based, human; conditions: electroporation of 50-300 µg protein
Protocol: (§1) HeLa cells were obtained from the American Type Culture Collection (ATCC) and were cultured in DMEM medium (Gibco) supplemented with 10% fetal bovine serum (FBS) (PAN-Biotech) and 1% penicillin/streptomycin (Gibco). Cells were cultured in a humidified incubator at 37 °C in the presence of 5% CO2. The identity of the cells was validated by STR profiling and the cells were tested negative for mycoplasma contamination.
(§2) Electroporation of full-length KRas constructs (KRasWT, KRasG13C, KRasG13C-edaGDP, KRasG13C:acetyledaGDP and KRasG13C-edaGppCp) was performed based on the protocol described by [Alex et al., 2019] using the Neon Transfection System Kit (Thermo Fisher). For electroporation, 3 million cells per experiment were harvested by trypsinization, washed with PBS, and resuspended in 85 µL of the electroporation buffer R (Thermo Fisher). Increasing amounts of recombinant protein samples for each construct (0, 50, 100, 200 and 300 µg) were diluted 1:1 in buffer R followed by the addition of 30 µL of this protein master mix to the cell suspension. This cellular slurry was loaded into a […] Neon Pipette Tip (Thermo Fisher) and electroporated with 2x35 ms pulses at 1000 V. After electroporation, the cells were washed twice with PBS (15 mL) to remove non-internalized extracellular protein and the cell pellet was resuspended in 2 mL complete growth media. Cells were transferred into six-well tissue culture plates (Sarstedt) and incubated for 24 hr at 37 °C and 5% CO2 in a humidified incubator for recovery before being processed for western blotting analysis.
After recovery of the electroporation, cells were washed twice with ice-cold PBS and lysed in 100 µL of phosphatase and protease inhibitor containing RIPA buffer (Cell Signaling Technology). Cells were incubated on ice for 30 min and then harvested by scraping followed by centrifugation at 14,000 rpm for 10 min at 4 °C. Protein concentrations were determined using the Pierce BCA protein assay (Thermo) following the manufacturer’s recommended procedure. Equal amounts of protein (10 µg) were analyzed by SDS-PAGE and transferred to Immobilon-FL PVDF membranes (Merck Millipore) using Pierce 1-step transfer buffer (Thermo) and the Pierce Power Blotter (Thermo). Membranes were washed with ddH2O for 5 min, blocked with OdysseyBlocking Buffer TBS (Li-Cor) for 1 hr at room temperature and then incubated with primary antibodies diluted in OdysseyBlocking Buffer TBS overnight at 4 °C with gentle agitation. […] Quantification of protein levels from western blots was performed using Empiria Studio (Li-Cor) (Figure 3B, C, Figure 3—figure supplements 6–9).

[3] = system: pS6S235/236; assay: Electroporation into HeLa cells, western blot quantification; type: cell-based, human; conditions: for pS6 mean fold change: mean of cell lysates
Protocol: as §1, §2
(§3) After recovery of the electroporation, cells were washed twice with ice-cold PBS and lysed in 100 µL of phosphatase and protease inhibitor containing RIPA buffer (Cell Signaling Technology). Cells were incubated on ice for 30 min and then harvested by scraping followed by centrifugation at 14,000 rpm for 10 min at 4 °C. Protein concentrations were determined using the Pierce BCA protein assay (Thermo) following the manufacturer’s recommended procedure. Equal amounts of protein (10 µg) were analyzed by SDS-PAGE and transferred to Immobilon-FL PVDF membranes (Merck Millipore) using Pierce 1-step transfer buffer (Thermo) and the Pierce Power Blotter (Thermo). Membranes were washed with ddH2O for 5 min, blocked with OdysseyBlocking Buffer TBS (Li-Cor) for 1 hr at room temperature and then incubated with primary antibodies diluted in OdysseyBlocking Buffer TBS overnight at 4 °C with gentle agitation. KRas (Sigma Aldrich, SAB1404011-100UG), pcRafS338 (CST, 9427), tAkt1 (CST, 2938), pAktS473 (CST, 4060), tErk (CST, 4696), pErkT202/Y204 (CST, 4370), pS6S235/236 (CST, 4858), and β-actin (CST, 4970/Sigma-Aldrich, A5441) antibodies were used to detect the individual proteins. After primary antibody incubation, membranes were washed three times with TBS-T (50 mM Tris, 150 mM NaCl, 0.05% Tween 20, pH 7.4) for 5 min before being incubated with secondary antibodies (anti-mouse IgG (H+L) (DyLight 680 Conjugate) (CST, 5470) / anti-rabbit IgG (H+L) (DyLight 800 4 X PEG Conjugate) (CST, 5151)) diluted in OdysseyBlocking Buffer TBS for 1 hr at room temperature with gentle agitation. After secondary antibody incubation, the membranes were washed three times for 5 min with TBS-T and then scanned using an OdysseyCLx imaging system (Li-Cor). Quantification of protein levels from western blots was performed using Empiria Studio (Li-Cor) (Figure 3B, C, Figure 3—figure supplements 6–9).

[4] = system: pcRafS338; assay: as above; type: cell-based, human; conditions: for pcRaf mean fold change: mean of cell lysates
Protocol: as §1, §2, §3

[5] = system: pAktS473; assay: as above; type: cell-based, human; conditions: for pAkt mean fold change: mean of cell lysates
Protocol: as §1, §2, §3

[6] = system: tAkt1; assay: as above; type: cell-based, human; conditions: for tAkt mean fold change: mean of cell lysates
Protocol: as §1, §2, §3

[7] = system: pErkT202/Y204; assay: as above; type: cell-based, human; conditions: for pErk mean fold change: mean of cell lysates
Protocol: as §1, §2, §3

[8] = system: tErk; assay: as above; type: cell-based, human; conditions: for tErk mean fold change: mean of cell lysates
Protocol: as §1, §2, §3

[9] = system: SOS; assay: Guanine nucleotide-exchange factor assay (mantdGDP fluorescence); type: biochemical; conditions: 5 µM KRas1-169, 10 µM mantdGDP, 0.25 or 0.5 µM SOS
Protocol: SOS-catalysed nucleotide exchange was monitored at 25 °C in a FluoroMax-3 spectrofluorometer (excitation at 360 nm, emission at 440 nm) in 20 mM HEPES (pH 7.5), 100 mM NaCl, 2 mM MgCl2, and 1 mM TCEP. 5 µM KRas1-169 was mixed with 10 µM mantdGDP and subsequently with different concentrations of SOS (0.25 µM and 0.5 µM) (Figure 3A; Figure 3—figure supplement 1).

Q: Which Kd [1] does the source give for `Nc1nc2c(ncn2[C@@H]2O[C@H](COP(=O)(O)OP(=O)(O)OCCNC(=O)CCl)[C@@H](O)[C@H]2O)c(=O)[nH]1` [SML-8-73-1] here?
A: ~140 nM

Q: Which results are given for “KRasG13C:acetyledaGDP: KRasG13C non-covalently loaded with acetyledaGDP, control”?
A: downstream signalling (pcRaf, pAkt, pErk, pS6) [2]: activation of the Ras pathway comparable to KRasG13C was observed; pS6 fold change ([3]; 50 µg, Cell lysate 1): 1.20; pS6 fold change ([3]; 50 µg, Cell lysate 2): 4.69; pS6 fold change ([3]; 50 µg, Cell lysate 3): 4.24; pS6 mean fold change ([3]; 50 µg): 3.38; pS6 fold change ([3]; 100 µg, Cell lysate 1): 1.62; pS6 fold change ([3]; 100 µg, Cell lysate 2): 7.62; pS6 fold change ([3]; 100 µg, Cell lysate 3): 3.73; pS6 mean fold change ([3]; 100 µg): 4.32; pS6 fold change ([3]; 200 µg, Cell lysate 1): 3.38; pS6 fold change ([3]; 200 µg, Cell lysate 2): 9.20; pS6 fold change ([3]; 200 µg, Cell lysate 3): 7.24; pS6 mean fold change ([3]; 200 µg): 6.61; pS6 fold change ([3]; 300 µg, Cell lysate 1): 2.82; pS6 fold change ([3]; 300 µg, Cell lysate 2): 9.13; pS6 fold change ([3]; 300 µg, Cell lysate 3): 7.42; pS6 mean fold change ([3]; 300 µg): 6.46; pcRaf fold change ([4]; 50 µg, Cell lysate 1): 8.73; pcRaf fold change ([4]; 50 µg, Cell lysate 2): 1.10; pcRaf fold change ([4]; 50 µg, Cell lysate 3): 15.70; pcRaf mean fold change ([4]; 50 µg): 8.51; pcRaf fold change ([4]; 100 µg, Cell lysate 1): 8.39; pcRaf fold change ([4]; 100 µg, Cell lysate 2): 1.51; pcRaf fold change ([4]; 100 µg, Cell lysate 3): 22.70; pcRaf mean fold change ([4]; 100 µg): 10.87; pcRaf fold change ([4]; 200 µg, Cell lysate 1): 13.70; pcRaf fold change ([4]; 200 µg, Cell lysate 2): 2.17; pcRaf fold change ([4]; 200 µg, Cell lysate 3): 32.40; pcRaf mean fold change ([4]; 200 µg): 16.09; pcRaf fold change ([4]; 300 µg, Cell lysate 1): 10.10; pcRaf fold change ([4]; 300 µg, Cell lysate 2): 3.88; pcRaf fold change ([4]; 300 µg, Cell lysate 3): 30.30; pcRaf mean fold change ([4]; 300 µg): 14.76; pAkt fold change ([5]; 50 µg, Cell lysate 1): 0.68; pAkt fold change ([5]; 50 µg, Cell lysate 2): 2.89; pAkt fold change ([5]; 50 µg, Cell lysate 3): 3.02; pAkt mean fold change ([5]; 50 µg): 2.20; pAkt fold change ([5]; 100 µg, Cell lysate 1): 0.79; pAkt fold change ([5]; 100 µg, Cell lysate 2): 4.04; pAkt fold change ([5]; 100 µg, Cell lysate 3): 4.42; pAkt mean fold change ([5]; 100 µg): 3.08; pAkt fold change ([5]; 200 µg, Cell lysate 1): 1.19; pAkt fold change ([5]; 200 µg, Cell lysate 2): 9.05; pAkt fold change ([5]; 200 µg, Cell lysate 3): 6.20; pAkt mean fold change ([5]; 200 µg): 5.48; pAkt fold change ([5]; 300 µg, Cell lysate 1): 2.16; pAkt fold change ([5]; 300 µg, Cell lysate 2): 13.30; pAkt fold change ([5]; 300 µg, Cell lysate 3): 3.81; pAkt mean fold change ([5]; 300 µg): 6.42; tAkt fold change ([6]; 50 µg, Cell lysate 1): 0.92; tAkt fold change ([6]; 50 µg, Cell lysate 2): 2.42; tAkt fold change ([6]; 50 µg, Cell lysate 3): 1.53; tAkt mean fold change ([6]; 50 µg): 1.62; tAkt fold change ([6]; 100 µg, Cell lysate 1): 1.23; tAkt fold change ([6]; 100 µg, Cell lysate 2): 2.03; tAkt fold change ([6]; 100 µg, Cell lysate 3): 1.95; tAkt mean fold change ([6]; 100 µg): 1.74; tAkt fold change ([6]; 200 µg, Cell lysate 1): 1.36; tAkt fold change ([6]; 200 µg, Cell lysate 2): 3.63; tAkt fold change ([6]; 200 µg, Cell lysate 3): 1.80; tAkt mean fold change ([6]; 200 µg): 2.26; tAkt fold change ([6]; 300 µg, Cell lysate 1): 0.81; tAkt fold change ([6]; 300 µg, Cell lysate 2): 4.18; tAkt fold change ([6]; 300 µg, Cell lysate 3): 2.17; tAkt mean fold change ([6]; 300 µg): 2.39; pErk fold change ([7]; 50 µg, Cell lysate 1): 3.76; pErk fold change ([7]; 50 µg, Cell lysate 2): 14.50; pErk fold change ([7]; 50 µg, Cell lysate 3): 5.88; pErk mean fold change ([7]; 50 µg): 8.05; pErk fold change ([7]; 100 µg, Cell lysate 1): 5.77; pErk fold change ([7]; 100 µg, Cell lysate 2): 17.10; pErk fold change ([7]; 100 µg, Cell lysate 3): 6.22; pErk mean fold change ([7]; 100 µg): 9.70; pErk fold change ([7]; 200 µg, Cell lysate 1): 14.00; pErk fold change ([7]; 200 µg, Cell lysate 2): 22.30; pErk fold change ([7]; 200 µg, Cell lysate 3): 9.35; pErk mean fold change ([7]; 200 µg): 15.22; pErk fold change ([7]; 300 µg, Cell lysate 1): 17.00; pErk fold change ([7]; 300 µg, Cell lysate 2): 29.30; pErk fold change ([7]; 300 µg, Cell lysate 3): 10.30; pErk mean fold change ([7]; 300 µg): 18.87; tErk fold change ([8]; 50 µg, Cell lysate 1): 0.88; tErk fold change ([8]; 50 µg, Cell lysate 2): 0.96; tErk fold change ([8]; 50 µg, Cell lysate 3): 0.92; tErk mean fold change ([8]; 50 µg): 0.92; tErk fold change ([8]; 100 µg, Cell lysate 1): 0.68; tErk fold change ([8]; 100 µg, Cell lysate 2): 0.93; tErk fold change ([8]; 100 µg, Cell lysate 3): 0.86; tErk mean fold change ([8]; 100 µg): 0.82; tErk fold change ([8]; 200 µg, Cell lysate 1): 0.80; tErk fold change ([8]; 200 µg, Cell lysate 2): 0.93; tErk fold change ([8]; 200 µg, Cell lysate 3): 0.97; tErk mean fold change ([8]; 200 µg): 0.90; tErk fold change ([8]; 300 µg, Cell lysate 1): 0.62; tErk fold change ([8]; 300 µg, Cell lysate 2): 0.90; tErk fold change ([8]; 300 µg, Cell lysate 3): 1.12; tErk mean fold change ([8]; 300 µg): 0.88; SOS-catalysed nucleotide exchange [9]: efficiently catalysed nucleotide exchange
